{"source": "patent US20250241328A1", "about": "“REDUCTANT TREATMENT METHODS FOR FOOD PRODUCT PRECURSORS” (Impossible Foods Inc., priority 2022, published 2025)", "key": {"bacterial bioburden": {"tested_on": "bacterial bioburden", "test": "Bacterial bioburden of heme samples following HTST treatment", "format": "cell-based", "details": "15 mM and 35 mM cysteine, heme samples at pH 9.5"}, "[1]": {"tested_on": "aerobic plate count (gram negative and gram positive bacteria)", "test": "Refrigerated shelf-life study of HTST-treated soy leghemoglobin, aerobic plate count", "format": "cell-based", "details": "HTST-treated soy leghemoglobin (LegH)", "from_the_text": "APC captures both gram negative and gram positive bacteria, whereas lactic acid bacteria (LAB) captures gram positive bacteria (FIG. 1B)."}, "E. coli": {"tested_on": "E. coli", "test": "Pathogen reduction during HTST in leghemoglobin samples", "format": "cell-based", "from_the_text": "(§1) Salmonella and E. coli are gram negative bacteria, and Listeria is gram positive. Addition of cysteine reduced the CFU/g of E. coli even in the absence of heat.\n(§2) FIGS. 2A, 2B, and 2C are tables showing the reduction of pathogens in leghemoglobin samples with and without cysteine."}, "Listeria": {"tested_on": "Listeria", "test": "Pathogen reduction during HTST in leghemoglobin samples", "format": "cell-based", "details": "cysteine treatment during HTST", "from_the_text": "as §1, §2"}, "Salmonella": {"tested_on": "Salmonella", "test": "Pathogen reduction during HTST in leghemoglobin samples", "format": "cell-based", "details": "cysteine treatment during HTST", "from_the_text": "as §1, §2"}, "LegH": {"target": "T1, LegH (Glycine max, UniProt P02236)", "T1 construct": "made in house; host or cells: Pichia", "T1 sequence (P02236 whole entry)": "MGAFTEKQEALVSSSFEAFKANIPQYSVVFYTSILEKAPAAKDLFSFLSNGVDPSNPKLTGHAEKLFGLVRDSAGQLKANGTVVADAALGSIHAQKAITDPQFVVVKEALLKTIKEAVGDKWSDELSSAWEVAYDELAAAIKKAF", "test": "LegH concentration after HTST of LegH Prep by UPLC (thermostability)", "format": "physicochemical, soy", "details": "HTST 20 seconds, 68-72° C.", "procedure": "This decrease in concentration is due to LegH aggregating or denaturing in response to heat. […] For UPLC, there is a resolved peak at the LegH retention time that can be tracked by 415 nm absorbance but the integration is performed on the 280 nm peak at that position."}, "[2]": {"test": "Percent suspended solids after HTST of LegH Prep", "format": "physicochemical", "details": "HTST 20 seconds, 68-72° C.", "from_the_text": "Suspended solid formation is likely due to aggregation or denaturation of the Pichia proteins within LegH Prep in response to heat. […] Increased suspended solids changes the physical properties of the protein solution and are typically associated with increased viscosity."}, "[3]": {"test": "Colorimetric properties (L*c*h) of LegH Prep after HTST", "format": "physicochemical", "details": "HTST 20 seconds, 68-72° C.", "procedure": "This color decline is due to LegH denaturation as well as potentially off-color formation produced by Pichia proteins in response to heat. […] FIG. 6 was performed at 15 mM cysteine, a temperature of 65° C., and a duration of 20 seconds. Performing HTST in the presence of cysteine results in less change in both chroma and hue angle show a decrease after HTST compared to performing HTST in the absence of cysteine."}}}
{"molecule": "N[C@@H](CS)C(=O)O", "note": "[cysteine, L-cysteine]", "values": [{"measurement": "bacterial bioburden CFU/g following HTST treatment", "setting": "bacterial bioburden", "value": "decreases bacterial bioburden"}, {"measurement": "aerobic plate count (APC) stability", "setting": "[1]", "value": "cysteine-dependent increase"}, {"measurement": "CFU/g reduction of E. coli", "setting": "E. coli; cysteine treatment during HTST", "value": "significantly increased"}, {"measurement": "CFU/g of E. coli", "setting": "E. coli; in the absence of heat", "value": "reduced"}, {"measurement": "CFU/g reduction of Listeria", "setting": "Listeria", "value": "significantly increased"}, {"measurement": "CFU/g reduction of Salmonella", "setting": "Salmonella", "value": "significantly increased"}, {"measurement": "decrease in LegH concentration after HTST", "setting": "LegH", "value": "diminished in a dose-dependent manner"}, {"measurement": "increase in percent suspended solids (% SS) after HTST", "setting": "[2]", "value": "diminished in a dose-dependent manner"}, {"measurement": "decline in L*c*h after HTST", "setting": "[3]", "value": "diminished in a dose-dependent manner"}]}
